Where “and” joins values, the source holds several entries; their conditions need not be identical. Equal values may be shown once.
What was measured:
breast cancer cells = experiment: Human breast cancer xenograft growth in athymic nude mice; assay type: in vivo; conditions: TM 1 mg/day; TP-TM 1 mg/day and 1.5 mg/day; p<0.01 vs control
Procedure: FIG. 5. […] 10^6 breast cancer cells were injected in the mammary fat pad of 4 groups of athymic, nude mice (5 mice per group). Control mice received no treatment.
In this study, 10^6 breast cancer cells were injected in the mammary fat pad of 4 groups of athymic, nude mice (5 mice per group). Control mice received no treatment.

[1] = Stability in open Petri dishes at room temperature (activity over time); conditions: for percentage activity: open Petri dishes at room temperature
Text: FIG. 4. […] Stability of each compound was studied under conditions that exacerbate instability, i.e. the drugs were in open Petri dishes at room temperature. The percentage activity is plotted as a function of time in days.
This study was done under conditions that exacerbate instability, ie. the drugs were in open Petri dishes at room temperature.

mammary tumors = experiment: Mammary tumor development in HER2-neu transgenic mice

tetrathiomolybdate [TM]
tumor growth curves versus control animals (breast cancer cells): effectively inhibiting tumor growth | half life [1]: about 40 days | percentage activity ([1]; Day 0): 100 | percentage activity ([1]; Day 45): 44 | percentage activity ([1]; Day 148): 9 | percentage activity ([1]; Day 211): 0 | TM-treated mice developing clinically overt tumors (mammary tumors; 0.5-1.0 mg TM by gavage daily from 100 days of age, median follow-up 260 days): none | ceruloplasmin (Cp) in treatment group (mammary tumors; 0.5-1.0 mg TM daily): below 40 % of baseline | outcome at higher doses (mammary tumors; 1.25-1.5 mg TM): died after 1-3 weeks of therapy | shrinkage of well established tumors (>1.5 cm) (mammary tumors; 3 control animals treated, 2/3 cases): 25% and 50% | vascularization of micro-tumors in mammary glands (mammary tumors; TM-treated mice, microscopic analyses): none of the micro-tumors of the treated mice were vascularized | maximum tolerated dose (MTD), prolonged treatment (mammary tumors; adult mice, average weight 32 grams): 1.0 mg/day | anemia (mammary tumors; copper (Cp) decreased to below 40% of baseline): no anemia observed | clinically overt toxicity (mammary tumors; copper levels decreased to 10% of baseline): no clinically overt toxicity | time to clinically overt mammary tumors after release from treatment (mammary tumors; cross-over group previously disease-free): ≤ 18 days

From patent publication US7888389B2 (The Regents of the University of Michigan, priority 2002, dated 2011)
